Measured values reported in US11020405B2, “Method for prevention or treatment of diabetic complications” (KANGWON NATIONAL UNIVERSITY UNIVERSITY-INDUSTRY COOPERATION …, priority 2017, dated 2021).

How the values were obtained:
[1] = system: human retinal endothelial cells (HRECs); assay: Identification of receptor of midazolam through ROS concentration analysis; type: cell-based; conditions: 0-50 μM flumazenil or 0-30 μM PK11195 1 hr, then 20 μM midazolam 30 min, then 10 ng/ml VEGF (FIG. 10B)
Method: With reference to FIG. 10A, the HRECs of Test Example 1 were subjected to the respective treatments below, cultured for 10 min, treated with 10 μM H2DCFDA, stained for 10 min in a phenol-red-free low-serum medium, and measured using confocal microscopy to thus determine the fluorescence intensity of single cells.
(§1) As will be described below, flumazenil was used as a GABAA receptor antagonist and PK11195 was used as a TSOP receptor antagonist.
With reference to FIG. 10B, the HRECs of Test Example 1 were treated with 0 μM, 0.01 μM, 0.1 μM, 1 μM, 10 μM, 20 μM, and 50 μM flumazenil and 0 μM, 0.01 μM, 0.1 μM, 1 μM, 3 μM, 10 μM, and 30 μM PK11195, cultured for 1 hr, treated with 20 μM midazolam, cultured for 30 min, treated with 10 ng/ml VEGF, incubated for 10 min, treated with 10 μM H2DCFDA, stained for 10 min in a phenol-red-free low-serum medium, and then measured using confocal microscopy to thus determine the fluorescence intensity of single cells.

TGase [2] = assay: Identification of receptor of midazolam through TGase activity analysis; type: cell-based, human; conditions: HRECs, 0-50 μM flumazenil or 0-30 μM PK11195 1 hr, then 20 μM midazolam 30 min, then 10 ng/ml VEGF (FIG. 11B)
Method: With reference to FIG. 11A, the HRECs of Test Example 1 were subjected to the respective treatments below, cultured for 2 hr, treated with 1 mM 5-(biotinamido)pentylamine, incubated for 1 hr, fixed with 3.7% formaldehyde, treated with 0.2% triton X-100, treated with a blocking solution containing 138 mM NaCl, 0.1% Tween 20 and 2% BSA dissolved in a 20 mM Tris (pH 7.6) buffer, incubated for 30 min, incubated with FITC-conjugated streptavidin (1:200, v/v) for 1 hr, and then measured using confocal microscopy to thus determine the fluorescence intensity of single cells.
as §1
With reference to FIG. 11B, the HRECs of Test Example 1 were treated with 0 μM, 0.01 μM, 0.1 μM, 1 μM, 10 μM, 20 μM, and 50 μM flumazenil and 0 μM, 0.01 μM, 0.1 μM, 1 μM, 3 μM, 10 μM, and 30 μM PK11195, cultured for 1 hr, treated with 20 μM midazolam, cultured for 30 min, treated with 10 ng/ml VEGF, incubated for 10 min, treated with 1 mM 5-(biotinamido)pentylamine, incubated for 1 hr, fixed with 3.7% formaldehyde, treated with 0.2% triton X-100, treated with a blocking solution containing 138 mM NaCl, 0.1% Tween 20 and 2% BSA dissolved in a 20 mM Tris (pH 7.6) buffer, incubated for 30 min, incubated with FITC-conjugated streptavidin (1:200, v/v) for 1 hr, and then measured using confocal microscopy to thus determine the fluorescence intensity of single cells.

TGase [3] = assay: Analysis of TGase activity in retinas of diabetic mouse model; type: in vivo, C57BL/6 mice; conditions: intravitreal 3 μL of 0.4 mM flumazenil in two administrations and 2 μL of 2 mM midazolam, group excluded from those without significant increase
Method: 6-week-old male C57BL/6 mice (DBL, EumSeong, Korea) were administered with streptozotocin (Sigma-Aldrich) dissolved in a 100 mM citrate buffer (pH 4.5) through intraperitoneal injection in an amount of 150 mg each per kg of mouse weight to give diabetic mouse models. In the diabetic mouse models, the blood glucose level was 19 mM or more when not fasting, and polyuria and diabetes, considered signs of diabetes, were observed. […]
48 μL of 100 mM 5-(biotinamido)pentylamine was injected into the left ventricle of each of normal mice (Normal), midazolam-administered normal mice (Midazolam), diabetic mice (Diabetic), midazolam-administered diabetic mice (Diabetic+Midazolam), flumazenil- and midazolam-administered diabetic mice (Diabetic+flumazenil+Midazolam), cystamine-administered diabetic mice (Diabetic+cystamine) and MDC-administered diabetic mice (Diabetic+MDC) and circulated for 10 min, after which cervical dislocation was performed, and the eyeballs were extracted, fixed with 4% paraformaldehyde for 45 min, incised and subjected to permeation treatment for 30 min. The obtained retinal samples were incubated with a blocking solution for 30 min, treated with FITC-conjugated streptavidin (1:200, v/v), stained for 1 hr, and measured using confocal microscopy. […]

[4] = system: retinal vessels of diabetic mice; assay: Fluorescein angiography for mouse model (retinal vascular leakage); type: in vivo, C57BL/6 mice; conditions: intravitreal 3 μL of 0.4 mM flumazenil in two administrations and 2 μL of 2 mM midazolam, group excluded from those without significant increase

With `CCOC(=O)c1ncn2c1CN(C)C(=O)c1cc(F)ccc1-2` [flumazenil] the “ROS concentration in midazolam- and VEGF-treated cells after receptor antagonist” value [1] was “an increase in ROS concentration with an increase in flumazenil concentration”, the “TGase activity in midazolam- and VEGF-treated cells after receptor antagonist” value (TGase [2]) was “an increase in TGase activity with an increase in flumazenil concentration” and the “TGase activity in retina compared to normal mice, flumazenil given with midazolam” value (TGase [3]) was “excluding the diabetic mice (Diabetic) and the flumazenil- and midazolam-administered diabetic mice”. The “retinal vascular leakage compared to normal mice, flumazenil given with midazolam” value [4] was “excluding the diabetic mice (Diabetic) and the flumazenil- and midazolam-administered diabetic mice”.
